Consider three compounds from patent US12234223B2, “Phthalazinone compound, and preparation method therefor and medical use thereof” (SHANGHAI JEMINCARE PHARMACEUTICALS CO., LTD, priority 2020, dated 2025).

The DC50 is the concentration giving 50% degradation. Low readings indicate a more potent degrader, high ones a less potent degrader. What is called Dmax is the greatest extent of degradation seen.

For the experiment, the target named is T1, Androgen receptor (Homo sapiens, UniProt P10275).
T1 construct: Dmax: a maximum degradation degree of AR in VCaP cells; endogenous in cells; host or cells: VCaP cells
T1 sequence (P10275 1-920): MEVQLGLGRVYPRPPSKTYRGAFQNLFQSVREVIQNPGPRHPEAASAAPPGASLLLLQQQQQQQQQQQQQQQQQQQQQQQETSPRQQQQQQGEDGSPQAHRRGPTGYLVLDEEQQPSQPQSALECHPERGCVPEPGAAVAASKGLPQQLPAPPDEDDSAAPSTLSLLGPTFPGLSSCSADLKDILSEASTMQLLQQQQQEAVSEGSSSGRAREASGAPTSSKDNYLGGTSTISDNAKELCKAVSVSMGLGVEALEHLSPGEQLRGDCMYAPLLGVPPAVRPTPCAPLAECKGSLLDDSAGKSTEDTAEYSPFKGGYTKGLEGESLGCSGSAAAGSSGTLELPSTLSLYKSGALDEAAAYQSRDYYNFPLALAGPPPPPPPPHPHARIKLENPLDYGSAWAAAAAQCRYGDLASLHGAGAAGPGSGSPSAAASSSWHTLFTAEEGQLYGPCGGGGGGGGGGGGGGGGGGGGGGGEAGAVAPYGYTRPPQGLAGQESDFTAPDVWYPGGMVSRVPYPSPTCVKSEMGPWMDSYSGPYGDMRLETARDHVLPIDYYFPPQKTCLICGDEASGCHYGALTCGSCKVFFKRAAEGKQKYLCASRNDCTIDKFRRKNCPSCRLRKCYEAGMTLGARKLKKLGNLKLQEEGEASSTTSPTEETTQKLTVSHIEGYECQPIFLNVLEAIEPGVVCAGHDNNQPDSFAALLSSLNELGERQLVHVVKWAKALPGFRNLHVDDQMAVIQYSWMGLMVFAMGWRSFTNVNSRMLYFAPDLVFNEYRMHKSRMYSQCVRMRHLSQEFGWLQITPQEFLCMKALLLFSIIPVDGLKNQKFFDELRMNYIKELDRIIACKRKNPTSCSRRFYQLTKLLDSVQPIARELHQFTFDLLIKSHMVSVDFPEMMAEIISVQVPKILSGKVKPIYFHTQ
Put plainly: Androgen receptor In-Cell-Western assay (AR degradation in VCaP cells). It is filed as cell-based. The settings on record: 24 hours treatment; for DC50: concentration for half the maximum degradation degree of AR in VCaP cells; for Dmax: maximum degradation degree of AR in VCaP cells. On the procedure: This assay evaluated compound performance in VCap cells. An intracellular androgen receptor was assayed by In-Cell-Western according to the assay procedure described below.
In a 96-well cell culture plate (Corning 3599) pretreated by poly-D-Lysin, Vcap cells were seeded to a Vcap cell assay medium [phenol red containing DMEM (Gibco Cat. No.: 11995065); fetal bovine serum FBS (Gibco Cat. No.: 10099141C)] at a volume of 100 μL/well and a cell density of 50,000 cells/well. Cells were cultured for at least two days. • 1. First, cells were treated with a compound. The compound was subjected to a gradient dilution by using DMSO and a cell culture medium, so that DMSO contained in the cell culture plate was diluted to 0.5%: a polypropylene plate was used according to the following protocol: • (1) (i) A 200× stock solution plate was prepared in DMSO; (ii) a 10 mM stock solution was diluted at 1:4 (10 μL stock solution+40 μL DMSO=2000 uM) with DMSO to enter row 2; (iii) a 1:4 (10 μL protac+40 μL DMSO) gradient dilution was performed from row 2 to row 9, row 1 was reserved for a 2000 uM reference compound and row 10 was reserved for DMSO. (iv) There were 8 concentrations (the final concentrations on the 200× plate was 2000 uM, 400 uM, 80 uM, etc.) in total. (2) (i) A 3× stock solution was prepared in the medium; (ii) 3 μL of the 200× stock solution was transferred to 197 μL of the medium (by a 12-channel pipette, from row 1 to row 10), i.e. a 3× stock solution plate. (iii) Uniform mixing was performed for the stock solution plate. (3) (i) The medium of Vcap cells was replaced with a fresh medium, with the medium volume of 100 μL. (ii) The uniformly-mixed 3× stock solution was transferred to the cell culture plate (by the 12-channel pipette, 50 μL of the stock solution was transferred from row 1 to row 10). (iii) The cells were cultured for 24 hours. • 2. The expression level of the intracellular androgen receptor after compound treatment was detected, and assay was performed according to the following method. • (1) (i) An equal volume of 8% paraformaldehyde was added to the cell culture plate for cell fixation. A fixative solution in the cell plate was discarded, and the cell plate was washed three times with PBS. (ii) A Triton solution was prepared (the stock solution was diluted at 1:1000). The solution in the cell plate was discarded, and a volume of 200 μL of a Triton diluent was added to each well. (iii) A 2× blocking solution was prepared (a 10× blocking stock solution was diluted at 1:4). The solution in the cell plate was discarded, and a volume of 100 μL of the 2× blocking solution was added to each well. (iv) A primary antibody solution (Androgen receptor Rabbit mAb, Cell Signaling Technology Cat. No.: 5153; 1:1000 dilution) was prepared. The solution in the cell plate was discarded, a volume of 100 μL of a primary antibody diluent was added to each well, and incubation was performed at 4 degrees overnight. (v) The primary antibody solution was discarded, and the cell plate was washed with 1× Wash buffer (Wash buffer in the present application means a washing buffer solution). (vi) A secondary antibody solution (Goat anti Rabbit IgG (H+L) Secondary Antibody, HRP, Thermo Cat. No.: 31460; 1:5000 dilution) was prepared, and a volume of 100 μL of a secondary antibody diluent was added to each well for incubation. (vii) The secondary antibody solution in the cell plate was discarded, and the cell plate was washed with 1× Wash buffer. (viii) A TMB chromogenic solution (BD Cat. No.: 550534) was prepared, and a volume of 100 μL of the chromogenic solution was added to each well. (ix) A volume of 50 μL of a stop solution (BD Cat. No.: 550534) was added to each well. (x) Absorption values at OD 450 nm and 570 nm were read by EnVision. (2) (i) Normalized analysis was performed for the number of cells in each well. The solution in the cell plate was discarded, and the cell plate was washed three times with wash buffer. […]

Turning to `CC1(C)[C@H](NC(=O)c2ccc(N3CCC(CN4CCN(c5ccc6c(=O)n(C7CCC(=O)NC7=O)nc(F)c6c5)CC4)CC3)cc2)C(C)(C)[C@H]1Oc1ccc(C#N)c(Cl)c1` (stereo partly drawn) [Compound 29], the DC50 amounted to 8.9 nM and the Dmax stood at 169%.
For `CC1(C)[C@H](NC(=O)c2ccc(N3CCC(CN4CCN(c5ccc6c(=O)n([C@H]7CCC(=O)NC7=O)ncc6c5)CC4)CC3)cc2)C(C)(C)[C@H]1Oc1ccc(C#N)c(Cl)c1` [Compound 28A] the same measures were 2.7 nM and 126%.
On the same counts, the results for `CC1(C)[C@H](NC(=O)c2ccc(N3CCC(CN4CCN(c5ccc6c(=O)n(C7CCC(=O)NC7=O)ncc6c5)CC4)CC3)cc2)C(C)(C)[C@H]1Oc1ccc(C#N)c(Cl)c1` (stereo partly drawn) [Compound 1] are 10 nM and 97%.
